The target of the assay is E3 ubiquitin-protein ligase Mdm2 (Homo sapiens, UniProt Q00987).

Each structure is given as a SMILES string.

E3 ubiquitin-protein ligase Mdm2, sequence (Q00987 whole entry): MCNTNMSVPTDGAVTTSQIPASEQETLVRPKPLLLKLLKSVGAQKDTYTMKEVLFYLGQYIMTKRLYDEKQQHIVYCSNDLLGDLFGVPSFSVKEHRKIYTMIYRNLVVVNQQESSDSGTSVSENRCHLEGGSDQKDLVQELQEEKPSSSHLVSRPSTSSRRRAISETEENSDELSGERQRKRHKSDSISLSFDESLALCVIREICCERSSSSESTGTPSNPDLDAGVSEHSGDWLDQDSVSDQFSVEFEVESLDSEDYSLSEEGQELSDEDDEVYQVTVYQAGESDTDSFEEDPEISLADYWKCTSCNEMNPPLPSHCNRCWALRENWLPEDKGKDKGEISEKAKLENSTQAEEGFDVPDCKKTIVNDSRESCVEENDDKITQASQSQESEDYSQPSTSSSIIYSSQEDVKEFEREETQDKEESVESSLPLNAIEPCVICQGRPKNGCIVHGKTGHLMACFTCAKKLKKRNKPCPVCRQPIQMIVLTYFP

For the molecule `O=C(O)c1[nH]c2cc(Cl)ccc2c1C1C(=O)NCCCCCCCCCCCCCC(=O)N1Cc1ccc(Cl)cc1` (stereo not drawn), the Ki entry is recorded as “Not Active”. To `CCOC(=O)c1[nH]c2cc(Cl)ccc2c1C1C(=O)NCCCCCCCCCCCCCCCCCCCC(=O)N1Cc1ccc(OCc2ccc(Cl)c(Cl)c2)cc1` (stereo not drawn) belongs “Not Active”; to `O=C(O)c1[nH]c2cc(Cl)ccc2c1C1C(=O)NCCCCCCCCCCCCCC(=O)N1Cc1ccc(F)cc1` (stereo not drawn), “Not Active”.

(Values after ChEMBL document CHEMBL4130521, “Artificial Macrocycles as Potent p53-MDM2 Inhibitors” (ACS Med Chem Lett, 2017).)
